From PMC6444592, “Citrullination of HP1γ chromodomain affects association with chromatin” (Epigenetics & Chromatin, 2019)

Legend:
mESCs [1] = test: live-cell single-particle tracking, 13.5 ms, jump distance analysis; assay type: cell-based, mouse; details: for Diffusion coefficient, Bound / Diffusion coefficient, Diffusing / Percentage, Bound / Percentage, Diffusing: 13.5 ms
Procedure: Parental E14 mouse embryonic stem cell (mESC) line was profiled by transcriptome analysis, qPCR and potency assays and was routinely tested for mycoplasma contamination and tested negative. Cells were cultured in DMEM (Gibco) supplemented with 15% standard FCS (Gibco), 0.1 mM non-essential amino acids (Gibco), 1% penicillin/streptomycin, 2 mM L-glutamine (Gibco), 1 mM sodium pyruvate (Gibco), 0.1 mM β-mercaptoethanol (Life Technologies) and 10^6 units/l mLIF (ESGRO, Millipore). E14 cells were stored in incubators at 37 °C in 7.5% CO2 (100% humidity) and maintained in 0.1% gelatin coated 10-cm culture dishes with 1:6 passaging every 2 days. Media was changed on a daily basis. E14 ESCs expressing mouse mEos3.2–HaloTag-HP1 fusion proteins were generated by transfecting appropriate pSB7 plasmids into E14 cells using Lipofectamine 2000 transfection reagent (Invitrogen), followed by selection in 600 µg/ml geneticin (Life Technologies). After 2 weeks of geneticin selection, cells were sorted using a Sony SH800S cell sorter for the expression of mEos3.2. Differentiation of ESCs was induced by LIF withdrawal. ESCs cultured in complete ES cell media (+ LIF) were trypsinised and washed twice in 1x PBS to remove residual LIF, seeded into ES cell media without LIF and incubated for 24, 48 or 72 h.
An IX73 Olympus inverted microscope was used with circularly polarised laser beams aligned and focused at the back aperture of an Olympus 1.40 NA 100 × oil objective (Universal Plan Super Apochromat, 100 × , NA 1.40, UPLSAPO100XO/1.4). Continuous wavelength diode laser light sources used include a 561-nm (Cobolt, Jive 200, 200 mW) and a 405-nm laser (Stradus, Toptica, 405–100, 100 mW). Oblique angle illumination was achieved by aligning the laser off axis such that the emergent beam at the sample interface was near-collimated and incident at an angle slightly less than the critical angle θc ~ 67° for a glass/water interface. This generated a ~ 50 μm diameter excitation footprint. The power of the collimated beams at the back aperture of the microscope was 10 kW/cm^2 and 10–100 W/cm^2 for the 561-nm and 405-nm laser beams, respectively. The lasers were reflected by dichroic mirrors (Semrock, Di01-R405/488/561/635). The fluorescence emission was collected through the same objective and then further filtered using a combination of long-pass and band-pass filters (BLP01-561R and FF01-587/35 for 561 nm excitation). The emission signal was projected onto an EMCCD (Photometrics, Evolve 512 Delta) with an electron multiplication gain of 250 ADU/photon operating in a frame transfer mode.
mESCs expressing mEos3.2–HaloTag-tagged HP1γ were passaged 2 days before imaging onto 35-mm glass bottom dishes No 1.0 (MatTek Corporation P35G-1.0-14-C Case) in phenol red-free serum and LIF conditions, if not stated otherwise. Just before single-particle tracking (SPT) imaging experiments, cells were labelled with 0.5 nM HaloTag–JF549 ligand for at least 15 min, followed by two washes in PBS and a 30-min incubation at 37 °C in media, before imaging the cells in fresh phenol red-free serum and LIF conditions. Cells were under-labelled to prevent overlap of fluorophores during SPT. Using 561 nm excitation, fluorescence images were collected as movies of 10,000 frames at 13.5 ms or 1000 to 5000 frames at 500 ms exposure. For live-cell tracking, data were collected for three biological replicates on separate dishes and the average values compared.
Live-cell 13.5-ms single-molecule traces were analysed using software that detects single-molecule trajectories from SPT movies. Briefly, the code detected puncta positions in each image frame using a brightness-weighted centroid after applying a band-pass filter to remove low-frequency background and high-frequency noise from the image data. To track the HP1 single molecules, only fluorescent puncta smaller than 3 pixels and with a signal to noise greater than 8 were analysed. […]

H3K9me3(1–16) peptides [2] = test: peptide pulldown assay; assay type: binding; details: 300 mM NaCl HBS-EP; Coomassie gel; n = 3 (p values 0.021, 0.008; ns 0.181)
Procedure: H3K9me3 or unmethylated H3(1–16) peptides, linked to Dynabeads MyOne streptavidin T1 (Thermo Fisher Scientific), were used in pulldown assays with eluted GST-HP1 in HBS-EP (300 mM NaCl, 10 mM HEPES KOH pH 7.4, 5 mM EDTA and 0.2% NP-40). Pulldown assays were performed in 300 mM NaCl HBS-EP as previously described. Samples were resuspended in 2 × Laemmli buffer and resolved by SDS-PAGE followed by Coomassie-blue staining. Images were quantified using ImageJ software.

H3K9me3(1–16) peptides [3] = test: bio-layer interferometry (BLI); assay type: binding; details: 20 mM Hepes KOH pH 7.2, 70 mM KCl, GST fusion, association 120 s, dissociation 120 s, WT 28.0 μM, R38/9K 25.5 μM, R38/9A 28.3 μM and lower concentrations
Procedure: Recombinant mouse full-length HP1 wildtype and mutant proteins were expressed in (as GST fusion proteins), and purified from, Escherichia coli as described. Proteins were concentrated using Amicon Ultra centrifugation filters with a 30 kDa cutoff (Millipore), washed into binding buffer (20 mM Hepes KOH pH 7.2, 70 mM KCl, 1 mM DTT, 0.1% Tween-20, 5% glycerol). Protein concentrations were determined by Bradford protein assay against a BSA standard, and purity was verified by SDS-PAGE followed by Coomassie-blue staining. Real-time binding assays of GST-HP1γ were performed using the BLItz® system (ForteBio) in binding buffer (+ 0.1% BSA). Biotinylated H3(1–16) peptides (NH2-[…](me3)STGGKAP-Biotin) were immobilised to Dip and Read High Precision Streptavidin (SAX) Biosensors (ForteBio), and kinetics for a range of protein concentrations were measured under advanced kinetics settings (1. initial baseline measuring buffer only: 30 s, 2. loading of peptides onto sensors: 120 s, 3. effective baseline measurement: 30 s, 4. association of GST-HP1γ proteins: 120 s, 5. dissociation of GST-HP1γ proteins: 120 s). The data were normalised to the effective baseline signal by subtracting the average baseline value (150–180 s) from each data point (150–420 s). […] Raw data are summarised in Additional file 3: Table S1.

PADI4 = test: in vitro citrullination (deimination) assay of HP1γ; assay type: biochemical, human; details: with calcium; for citrullination by PADI4, in words: GST fusion proteins, anti-peptidyl-citrulline immunoblot, n = 3 (p values 0.002, 0.003, 0.008)
Procedure: For immunoblotting, cells were lysed in 2 × Laemmli buffer and sonicated in a water bath (Fisherbrand) for 3 min to shear genomic DNA, spun down at full speed in a microfuge for 15 min and incubated for 5 min at 95 °C. Proteins were resolved by SDS-PAGE, transferred to nitrocellulose membrane (Millipore) using wet transfer (transfer buffer: 192 mM glycine, 25 mM Tris.HCl pH8.8) and incubated in blocking solution (5% BSA in TBS containing 0.5% Tween-20 for citrulline sensitive antibodies and 5% non-fat milk powder in TBS containing 0.1% Tween-20 for all other antibodies) for 1 h at room temperature (RT). Membranes were incubated with primary antibody at 4 °C o/n and appropriate HRP-conjugated secondary antibody for 1 h at RT. Membranes were then incubated for enhanced chemiluminescence (ECL, Promega), and proteins were detected by exposure to X-ray film or using the ChemiDoc™ MP imaging system (Bio-Rad). Images were quantified using ImageJ analysis software. Primary antibodies diluted in blocking solution were used to detect citrullinated histone H3R2 (H3R2-Cit, Abcam ab176843 at 1:1000 dilution), HP1γ (Millipore 05-690 MAB clone 42s2 [16] at 1:1000 dilution), β-Tubulin (Abcam ab6046 at 1:1000 dilution) and peptidyl-citrulline (Millipore MABN328, clone F95 [48] at 1:1000 dilution). HRP-conjugated secondary antibodies diluted in blocking solution were used against mouse IgG (Dako, P0447 at 1:5000 dilution), rabbit IgG (Abcam, ab6721 at 1:20,000 dilution) and sheep IgG (Abcam, ab6747 at 1:5000 dilution).
In vitro deimination of GST-HP1 variants was carried out as described previously [22]. In vitro deimination assays were performed in the presence and absence of 100 ng H3(1–16) or H3K9me3 peptides as appropriate. Samples were resuspended in 1 × Laemmli buffer for immunoblot analysis.

mESCs [4] = test: immunoprecipitation of endogenous HP1γ and anti-peptidyl-citrulline immunoblot; assay type: cell-based, mouse; details: −LIF 72 h versus +LIF; nuclear lysates; three replicates
Procedure: For immunoblotting, cells were lysed in 2 × Laemmli buffer and sonicated in a water bath (Fisherbrand) for 3 min to shear genomic DNA, spun down at full speed in a microfuge for 15 min and incubated for 5 min at 95 °C. Proteins were resolved by SDS-PAGE, transferred to nitrocellulose membrane (Millipore) using wet transfer (transfer buffer: 192 mM glycine, 25 mM Tris.HCl pH8.8) and incubated in blocking solution (5% BSA in TBS containing 0.5% Tween-20 for citrulline sensitive antibodies and 5% non-fat milk powder in TBS containing 0.1% Tween-20 for all other antibodies) for 1 h at room temperature (RT). Membranes were incubated with primary antibody at 4 °C o/n and appropriate HRP-conjugated secondary antibody for 1 h at RT. Membranes were then incubated for enhanced chemiluminescence (ECL, Promega), and proteins were detected by exposure to X-ray film or using the ChemiDoc™ MP imaging system (Bio-Rad). Images were quantified using ImageJ analysis software. Primary antibodies diluted in blocking solution were used to detect citrullinated histone H3R2 (H3R2-Cit, Abcam ab176843 at 1:1000 dilution), HP1γ (Millipore 05-690 MAB clone 42s2 [16] at 1:1000 dilution), β-Tubulin (Abcam ab6046 at 1:1000 dilution) and peptidyl-citrulline (Millipore MABN328, clone F95 [48] at 1:1000 dilution). […]

Substance: HP1γI165K: chromoshadow domain (CSD) mutant HP1γI165K, which prevents dimerisation of HP1γ [reference compound]
- Diffusion coefficient, Bound (mESCs [1]; +LIF, replicate i): 0.081 µm2s-1
- Diffusion coefficient, Diffusing (mESCs [1]; +LIF, replicate i): 1.500 µm2s-1
- Percentage, Bound (mESCs [1]; +LIF, replicate i): 32.7%
- Percentage, Diffusing (mESCs [1]; +LIF, replicate i): 67.3%
- Diffusion coefficient, Bound (mESCs [1]; +LIF, replicate ii): 0.100 µm2s-1
- Diffusion coefficient, Diffusing (mESCs [1]; +LIF, replicate ii): 1.485 µm2s-1
- Percentage, Bound (mESCs [1]; +LIF, replicate ii): 20.9%
- Percentage, Diffusing (mESCs [1]; +LIF, replicate ii): 79.1%
- Diffusion coefficient, Bound (mESCs [1]; +LIF, replicate iii): 0.00228 µm2s-1
- Diffusion coefficient, Diffusing (mESCs [1]; +LIF, replicate iii): 1.500 µm2s-1
- Percentage, Bound (mESCs [1]; +LIF, replicate iii): 0.4%
- Percentage, Diffusing (mESCs [1]; +LIF, replicate iii): 99.6%
- Diffusion coefficient, Bound (mESCs [1]; +LIF, replicate iv): 0.023 µm2s-1
- Diffusion coefficient, Diffusing (mESCs [1]; +LIF, replicate iv): 1.500 µm2s-1
- Percentage, Bound (mESCs [1]; +LIF, replicate iv): 4%
- Percentage, Diffusing (mESCs [1]; +LIF, replicate iv): 96%
- diffusion coefficient of bound molecules, in words (mESCs [1]; mESCs, n = 4–5): remained unchanged
- diffusion of diffusing molecules versus wildtype (mESCs [1]; mESCs, n = 4–5, p value: 0.0001): moved significantly more quickly than wildtype molecules
- percentages of molecules within diffusing and bound fraction, significance versus WT (mESCs [1]; n = 4–5, p value > 0.165): ns.
- Diffusion coefficient, Diffusing (mESCs [1]; −LIF, replicate i): 1.101 µm2s-1
- Percentage, Bound (mESCs [1]; −LIF, replicate i): 10%
- Percentage, Diffusing (mESCs [1]; −LIF, replicate i): 90%
- Diffusion coefficient, Bound (mESCs [1]; −LIF, replicate ii): 0.098 µm2s-1
- Diffusion coefficient, Diffusing (mESCs [1]; −LIF, replicate ii): 1.500 µm2s-1
- Percentage, Bound (mESCs [1]; −LIF, replicate ii): 16.6%
- Percentage, Diffusing (mESCs [1]; −LIF, replicate ii): 83.4%

Substance: HP1γR38/9K: HP1γ with both R38 and R39 mutated to lysine
- binding in pulldown, in words (H3K9me3(1–16) peptides [2]): maintained binding to H3K9me3 peptides
- BLI binding, in words (H3K9me3(1–16) peptides [3]): binds H3K9me3 peptides with similar affinity to the WT protein
- BLI binding, in words (H3K9me3(1–16) peptides [3]; listed as R38/9K): maintained binding to H3K9me3 peptides
- enhancement of citrullination by H3K9me3 peptides, in words (PADI4; H3K9me3(1–16) peptides, mutant used as substrate): abolished

Substance: R39K: HP1γ with R39 substituted with lysine
- citrullination by PADI4, in words (PADI4): abolished

Substance: heterochromatin protein 1 gamma [HP1γ]
- binding in pulldown, in words (H3K9me3(1–16) peptides [2]): specifically binds to H3K9me3 peptides
- citrullination by PADI4, in words (PADI4): PADI4 citrullinates HP1γ in vitro
- citrullination of endogenous HP1γ in differentiating mESCs (mESCs [4]): significantly less citrullinated in differentiating mESCs
